Literature values in US9400249B2, “Detection of biopolymer interactions, cancer cells, and pathogens using split-supercharged GFP” (Colorado State University Research Foundation, priority 2012, dated 2016).

What was measured:
Hepatocellular carcinoma = conditions: Targeted cell type: Hepatocellular carcinoma; read-out: Approximate affinity (Kd in nM)
Osteosarcoma = conditions: Targeted cell type: Osteosarcoma; read-out: Approximate affinity (Kd in nM)
[1] = tested on: PC-3 prostate cancer cells; conditions: previously reported
Cholangiocarcinoma = conditions: Targeted cell type: Cholangiocarcinoma; read-out: Approximate affinity (Kd in nM)
Head and neck cancer = conditions: Targeted cell type: Head and neck cancer; read-out: Approximate affinity (Kd in nM)
[2] = molecular target: Breast cancer, Neuroblastoma; conditions: Targeted cell type: Breast cancer, read-out: Approximate affinity (Kd in nM)

For “AGKGTPSLETTP [cell targeting peptide, targeted cell type hepatocellular carcinoma]”, the Kd (Hepatocellular carcinoma) is listed as ~50 nM.

In the case of “ASGALSPSRLDT [cell targeting peptide, targeted cell type osteosarcoma]”, the Kd (Osteosarcoma) is listed as ~2000 nM.

For FRPNRAQDYNTN, the “binding to PC-3 prostate cancer cells” value (Prostate cancer; PC-3 prostate cancer cells, previously reported) is given as “potently binds”, the Kd (Prostate cancer; Targeted cell type: Prostate cancer, read-out: Approximate affinity (Kd in nM)) is given as ~180 nM and the “penetration of PC-3 prostate cancer cells” value [1] is given as “does not appreciably penetrate”.

For “TPVLETPKLLLW [cell targeting peptide, targeted cell type cholangiocarcinoma]”, the Kd (Cholangiocarcinoma) is listed as ~500 nM.

In the case of “TSPLNIHNGQKL [cell targeting peptide, targeted cell type head and neck cancer]”, the Kd (Head and neck cancer) is listed as ~1000 nM.

For “VPWMEPAYQRFL [cell targeting peptide, targeted cell type breast cancer, neuroblastoma]”, the Kd [2] is listed as 50000 to 80000 nM.
